Columns and labels:
Test in all cases: relative viability (nuclei count vs DMSO), 5 days (fraction); higher = more cells survive
[1] = compound: CN(C)CC1=CC(=CC=C1)N=C(C2=CC=CC=C2)C3=C(NC4=C3C=CC(=C4)C(=O)N(C)C)O
How it was run: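 For viability, nuclei in each treated well were divided by nuclei in vehicle wells and the median across plates was taken. Lung cancer cell lines in 1536-well plates were pinned with five library-drug doses (not always all listed) spaced by √10, cultured 5 days without medium change, and imaged at 4× after Hoechst staining, with plates passing only at control CV below 25% and at least one doubling.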

[2] = compound: CN(C)CC1=CC(=CC=C1)N=C(C2=CC=CC=C2)C3=C(NC4=C3C=CC(=C4)C(=O)N(C)C)O + Cc1cc(Nc2cc(N3CCN(C)CC3)nc(Sc3ccc(NC(=O)C4CC4)cc3)n2)n[nH]1 [Tozasertib] (partner 0.1 µM)
How it was run: (§1)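 Lung cancer cell lines, seeded in 1536-well plates, were treated the following day by pin tool with a single drug or with five library-drug doses (not always all listed) in √10 steps on top of a fixed anchor-drug dose. Cells were fixed and nuclei stained in one step after 5 days, and nuclei were counted. Relative viability is the nuclei count for treated wells divided by that for vehicle wells, reported as medians of duplicate plates.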

[3] = compound: CN(C)CC1=CC(=CC=C1)N=C(C2=CC=CC=C2)C3=C(NC4=C3C=CC(=C4)C(=O)N(C)C)O + Nc1nc2[nH]cc(CCc3ccc(C(=O)N[C@@H](CCC(=O)O)C(=O)O)cc3)c2c(=O)[nH]1 [Pemetrexed] (partner 0.2 µM)
How it was run: as §1

[4] = compound: CN(C)CC1=CC(=CC=C1)N=C(C2=CC=CC=C2)C3=C(NC4=C3C=CC(=C4)C(=O)N(C)C)O + Cc1nc(Nc2ncc(C(=O)Nc3c(C)cccc3Cl)s2)cc(N2CCN(CCO)CC2)n1 [Dasatinib] (partner 0.075 µM)
How it was run: as §1

[5] = compound: CN(C)CC1=CC(=CC=C1)N=C(C2=CC=CC=C2)C3=C(NC4=C3C=CC(=C4)C(=O)N(C)C)O + NC(=O)Nc1cc(-c2cccc(F)c2)sc1C(=O)N[C@H]1CCCNC1 [AZD7762] (partner 0.2 µM)
How it was run: as §1

[6] = compound: CN(C)CC1=CC(=CC=C1)N=C(C2=CC=CC=C2)C3=C(NC4=C3C=CC(=C4)C(=O)N(C)C)O + O=C(CCCCCCC(=O)Nc1ccccc1)NO [Vorinostat] (partner 1 µM)
How it was run: as §1

[7] = compound: CN(C)CC1=CC(=CC=C1)N=C(C2=CC=CC=C2)C3=C(NC4=C3C=CC(=C4)C(=O)N(C)C)O + CCNC(=O)c1noc(-c2cc(C(C)C)c(O)cc2O)c1-c1ccc(CN2CCOCC2)cc1 [Luminespib] (partner 0.01 µM)
How it was run: as §1

[8] = compound: CN(C)CC1=CC(=CC=C1)N=C(C2=CC=CC=C2)C3=C(NC4=C3C=CC(=C4)C(=O)N(C)C)O + Nc1ncn([C@H]2C[C@H](O)[C@@H](CO)O2)c(=O)n1 [Decitabine] (partner 2 µM)
How it was run: as §1

[9] = compound: CN(C)CC1=CC(=CC=C1)N=C(C2=CC=CC=C2)C3=C(NC4=C3C=CC(=C4)C(=O)N(C)C)O + CC(=O)Nc1cccc(-n2c(=O)n(C3CC3)c(=O)c3c(Nc4ccc(I)cc4F)n(C)c(=O)c(C)c32)c1 [Trametinib] (partner 0.02 µM)
How it was run: as §1

[10] = compound: CN(C)CC1=CC(=CC=C1)N=C(C2=CC=CC=C2)C3=C(NC4=C3C=CC(=C4)C(=O)N(C)C)O + O=C(c1cc(Cc2n[nH]c(=O)c3ccccc23)ccc1F)N1CCN(C(=O)C2CC2)CC1 [Olaparib] (partner 8 µM)
How it was run: as §1

[11] = compound: CN(C)CC1=CC(=CC=C1)N=C(C2=CC=CC=C2)C3=C(NC4=C3C=CC(=C4)C(=O)N(C)C)O + COc1cccc2cc(-c3nc([C@H]4CC[C@H](C(=O)O)CC4)n4ncnc(N)c34)[nH]c12 [OSI-027] (partner 0.5 µM)
How it was run: as §1

[12] = compound: CN(C)CC1=CC(=CC=C1)N=C(C2=CC=CC=C2)C3=C(NC4=C3C=CC(=C4)C(=O)N(C)C)O + CC(=O)c1c(C)c2cnc(Nc3ccc(N4CCNCC4)cn3)nc2n(C2CCCC2)c1=O [Palbociclib] (partner 0.5 µM)
How it was run: as §1

[13] = compound: CN(C)CC1=CC(=CC=C1)N=C(C2=CC=CC=C2)C3=C(NC4=C3C=CC(=C4)C(=O)N(C)C)O + N=C(N)NC(=N)NCCc1ccccc1 [Phenformin] (partner 250 µM)
How it was run: as §1

[14] = compound: CN(C)CC1=CC(=CC=C1)N=C(C2=CC=CC=C2)C3=C(NC4=C3C=CC(=C4)C(=O)N(C)C)O + COc1cc2c(Oc3ccc(NC(=O)C4(C(=O)Nc5ccc(F)cc5)CC4)cc3F)ccnc2cc1OCCCN1CCOCC1 [Foretinib] (partner 0.25 µM)
How it was run: as §1

NCI-H522
relative viability ([1]; 0.08 µM): 1.1
relative viability ([1]; 0.253 µM): 1.01
relative viability ([1]; 0.8 µM): 0.829
relative viability ([1]; 2.53 µM): 0.958
relative viability ([1]; 8 µM): 0.913
relative viability ([2]; first compound 0.08 µM): 0.544
relative viability ([2]; first compound 0.253 µM): 0.46
relative viability ([2]; first compound 0.8 µM): 0.546
relative viability ([2]; first compound 2.53 µM): 0.587
relative viability ([2]; first compound 8 µM): 0.62
relative viability ([3]; first compound 0.08 µM): 1.03
relative viability ([3]; first compound 0.253 µM): 1.04
relative viability ([3]; first compound 0.8 µM): 0.763
relative viability ([3]; first compound 2.53 µM): 1.07
relative viability ([3]; first compound 8 µM): 0.817
relative viability ([4]; first compound 0.08 µM): 0.938
relative viability ([4]; first compound 0.253 µM): 0.97
relative viability ([4]; first compound 0.8 µM): 0.788
relative viability ([4]; first compound 2.53 µM): 0.837
relative viability ([4]; first compound 8 µM): 0.982
relative viability ([5]; first compound 0.08 µM): 0.972
relative viability ([5]; first compound 0.253 µM): 0.871
relative viability ([5]; first compound 0.8 µM): 0.855
relative viability ([5]; first compound 2.53 µM): 0.953
relative viability ([5]; first compound 8 µM): 0.736
relative viability ([6]; first compound 0.08 µM): 0.986
relative viability ([6]; first compound 0.253 µM): 0.984
relative viability ([6]; first compound 0.8 µM): 0.89
relative viability ([6]; first compound 2.53 µM): 0.977
relative viability ([6]; first compound 8 µM): 0.843
relative viability ([7]; first compound 0.08 µM): 1.16
relative viability ([7]; first compound 0.253 µM): 1.13
relative viability ([7]; first compound 0.8 µM): 1.12
relative viability ([7]; first compound 2.53 µM): 1.22
relative viability ([7]; first compound 8 µM): 0.819
relative viability ([8]; first compound 0.08 µM): 0.672
relative viability ([8]; first compound 0.253 µM): 0.673
relative viability ([8]; first compound 0.8 µM): 0.635
relative viability ([8]; first compound 2.53 µM): 0.597
relative viability ([8]; first compound 8 µM): 0.574
relative viability ([9]; first compound 0.08 µM): 0.709
relative viability ([9]; first compound 0.253 µM): 0.84
relative viability ([9]; first compound 0.8 µM): 0.735
relative viability ([9]; first compound 2.53 µM): 0.746
relative viability ([9]; first compound 8 µM): 0.667
relative viability ([10]; first compound 0.08 µM): 0.573
relative viability ([10]; first compound 0.253 µM): 0.663
relative viability ([10]; first compound 0.8 µM): 0.545
relative viability ([10]; first compound 2.53 µM): 0.713
relative viability ([10]; first compound 8 µM): 0.622
relative viability ([11]; first compound 0.08 µM): 0.68
relative viability ([11]; first compound 0.253 µM): 0.693
relative viability ([11]; first compound 0.8 µM): 0.694
relative viability ([11]; first compound 2.53 µM): 0.651
relative viability ([11]; first compound 8 µM): 0.643
relative viability ([12]; first compound 0.08 µM): 0.956
relative viability ([12]; first compound 0.253 µM): 1.04
relative viability ([12]; first compound 0.8 µM): 0.906
relative viability ([12]; first compound 2.53 µM): 0.886
relative viability ([12]; first compound 8 µM): 0.923
relative viability ([13]; first compound 0.08 µM): 0.688
relative viability ([13]; first compound 0.253 µM): 0.646
relative viability ([13]; first compound 0.8 µM): 0.66
relative viability ([13]; first compound 2.53 µM): 0.621
relative viability ([13]; first compound 8 µM): 0.655

NCI-H1623
relative viability ([1]; 0.08 µM): 1.09
relative viability ([1]; 0.253 µM): 0.97
relative viability ([1]; 0.8 µM): 0.729
relative viability ([1]; 2.53 µM): 1.04
relative viability ([1]; 8 µM): 1.09
relative viability ([2]; first compound 0.08 µM): 0.428
relative viability ([2]; first compound 0.253 µM): 0.519
relative viability ([2]; first compound 2.53 µM): 0.412
relative viability ([2]; first compound 8 µM): 0.464
relative viability ([14]; first compound 0.08 µM): 0.825
relative viability ([14]; first compound 0.253 µM): 1.17
relative viability ([14]; first compound 0.8 µM): 0.642
relative viability ([14]; first compound 2.53 µM): 0.894
relative viability ([14]; first compound 8 µM): 0.854
relative viability ([4]; first compound 0.08 µM): 0.552
relative viability ([4]; first compound 0.253 µM): 0.632
relative viability ([4]; first compound 2.53 µM): 0.593
relative viability ([4]; first compound 8 µM): 0.499
relative viability ([7]; first compound 0.08 µM): 0.416
relative viability ([7]; first compound 0.253 µM): 0.652
relative viability ([7]; first compound 2.53 µM): 0.445
relative viability ([7]; first compound 8 µM): 0.504
relative viability ([11]; first compound 0.08 µM): 0.428
relative viability ([11]; first compound 0.253 µM): 0.449
relative viability ([11]; first compound 0.8 µM): 0.378
relative viability ([11]; first compound 2.53 µM): 0.452
relative viability ([11]; first compound 8 µM): 0.514
relative viability ([13]; first compound 0.08 µM): 0.544
relative viability ([13]; first compound 0.253 µM): 0.69
relative viability ([13]; first compound 2.53 µM): 0.551
relative viability ([13]; first compound 8 µM): 0.514

— the supplement of paper PMC10307832
